Experimental findings from US20140213538A1, “LYSOPHOSPHATIDIC ACID RECEPTOR ANTAGONISTS” (InterMune, Inc., priority 2013, published 2014) are described below.

This test concerns the target T1, LPA/S1P GPCR of interest (Homo sapiens, UniProt Q92633).
T1 construct: host or cells: CHO
In words: Beta-Arrestin based assay (PathHunter). The class given is cell-based. How it is done: CMV promoter based DNA constructs expressing a fusion of the LPA/S1P GPCR of interest and ProLink™ tag were used to transfect EA Parental™ CHO cells (DiscoverX, Fremont, Calif.) using a FuGENE® transfection kit (Roche). Beta-Arrestin based assays were conducted 24-48 hrs post transfection using PathHunter® assay kits (DiscoverX, Fremont, Calif.). Agonist and antagonist assays were performed in quadruplicate in white 384 well plates. End point luminescence data were plotted and fit to a 4 parameter logistic function to obtain IC50 values. For antagonist assays, an IC80 concentration of agonist (LPA) equal to 0.5 micromolar was used.

Where only a bound is given, the exact number is not on record here.

T1 sequence (Q92633 whole entry): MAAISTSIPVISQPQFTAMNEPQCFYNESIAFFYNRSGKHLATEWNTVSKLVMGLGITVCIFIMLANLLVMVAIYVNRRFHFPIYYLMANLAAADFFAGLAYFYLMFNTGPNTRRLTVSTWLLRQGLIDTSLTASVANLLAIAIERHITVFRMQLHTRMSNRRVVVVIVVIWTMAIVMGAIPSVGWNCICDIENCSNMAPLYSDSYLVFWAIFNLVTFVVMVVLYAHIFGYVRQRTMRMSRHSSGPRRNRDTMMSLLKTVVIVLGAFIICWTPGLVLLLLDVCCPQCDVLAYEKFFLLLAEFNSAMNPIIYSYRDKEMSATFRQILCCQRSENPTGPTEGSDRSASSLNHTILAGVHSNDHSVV

`Cc1nsc(-c2cc3sc(-c4cc(F)c(C5(C(=O)O)CC5)cc4F)cc3s2)c1NC(=O)O[C@H](C)c1ccccc1` [IT346]: the EC50 (as a rule, the concentration at which the effect is half-maximal) is under 0.05 µM.
The value for `C[C@@H](OC(=O)Nc1c(-c2ccc(-c3ccc(OC(C)(C)C(=O)O)c(F)c3)cc2)oc2ccccc12)c1ccccc1` [IT504] was 0.05 to 0.5 µM; that for `C[C@@H](OC(=O)Nc1c(-c2cc3sc(-c4ccc(C5(C(=O)O)CC5)c(Cl)c4)cc3s2)cnn1C)c1ccccc1` [IT367] was under 0.05 µM.
The value for `Cc1nsc(-c2cc3sc(-c4ccc(CC(=O)O)cc4C(F)(F)F)cc3s2)c1NC(=O)O[C@H](C)c1ccccc1` [IT337] was over 0.5 µM; that for `C[C@@H](OC(=O)Nc1c(-c2cc3sc(-c4ccc(-c5nnc(C6(C(=O)O)CC6)o5)cc4)cc3s2)cnn1C)c1ccccc1` [IT217] was over 0.5 µM.
For `Cc1nsc(-c2cc3sc(-c4ccc(CC(=O)O)c(S(C)(=O)=O)c4)cc3s2)c1NC(=O)O[C@H](C)c1ccccc1` [IT433] the value was over 0.5 µM.
In turn, `C[C@@H](OC(=O)Nc1c(-c2cc(F)c(-c3cc(F)c(Oc4ncccc4C(=O)O)c(F)c3)cc2F)cnn1C)c1ccccc1` [IT473] registered an EC50 of under 0.05 µM.
The value for `COc1cc(CC(=O)O)c(F)cc1-c1cc2sc(-c3cnn(C)c3NC(=O)O[C@H](C)c3ccccc3)cc2s1` [IT410] was over 0.5 µM.
The value for `Cc1nsc(-c2cc3sc(-c4ccc5c(CC(=O)O)coc5c4)cc3s2)c1NC(=O)O[C@H](C)c1ccccc1` [IT290] was over 0.5 µM.
The value for `Cc1nsc(-c2ccc(-c3ccc(C(=O)O)s3)cc2)c1NC(=O)O[C@H](C)c1ccccc1` [IT144] was over 0.5 µM; that for `C[C@@H](OC(=O)Nc1c(-c2ccc(-c3nnc(C4(C(=O)O)CC4)o3)cc2)nnn1C)c1ccccc1` [IT175] was over 0.5 µM.
In turn, `C[C@@H](OC(=O)Nc1c(-c2cc3sc(-c4ccc5occ(CC(=O)O)c5c4)cc3s2)cnn1C)c1ccccc1` [IT332] showed an EC50 of 0.05 to 0.5 µM.
For `C[C@@H](OC(=O)Nc1c(-c2cc3sc(-c4ccc5c(CC(=O)O)coc5c4)cc3s2)nnn1C)c1ccccc1` [IT369] the value was 0.05 to 0.5 µM.
As to `C[C@@H](OC(=O)Nc1c(-c2cc3sc(-c4cnc(C5(C(=O)O)CC5)c(F)c4)cc3s2)cnn1C)c1ccccc1` [IT392], the EC50 was 0.05 to 0.5 µM.
For `Cc1cc(C2(C(=O)O)CC2)c(F)cc1-c1cc2sc(-c3snc(C)c3NC(=O)O[C@H](C)c3ccccc3)cc2s1` [IT343] the value was under 0.05 µM; for `Cc1nsc(-c2cc3sc(-c4cc(F)c(CC(=O)O)cc4F)cc3s2)c1NC(=O)O[C@H](C)c1ccccc1` [IT326], 0.05 to 0.5 µM.
For `COc1cc(C2(C(=O)O)CC2)c(OC)cc1-c1cc2sc(-c3snc(C)c3NC(=O)O[C@H](C)c3ccccc3)cc2s1` [IT413] the value was over 0.5 µM; for `C[C@@H](OC(=O)Nc1c(-c2cc3sc(-c4ccc(CC(=O)O)c(F)c4F)cc3s2)cnn1C)c1ccccc1` [IT211], 0.05 to 0.5 µM.
The molecule `Cc1cc(-c2cc3sc(-c4nnn(C)c4NC(=O)O[C@H](C)c4ccccc4)cc3s2)ccc1C1(C(=O)O)CC1` [IT324] had an EC50 of 0.05 to 0.5 µM.
The value for `C[C@@H](OC(=O)Nc1c(-c2ccc(C#CC(=O)Nc3ccccc3C(=O)O)cc2)cnn1C)c1ccccc1` [IT430] was over 0.5 µM; that for `COc1cc(C2(C(=O)O)CC2)ccc1-c1cc2sc(-c3nnn(C)c3NC(=O)O[C@H](C)c3ccccc3)cc2s1` [IT357] was 0.05 to 0.5 µM; that for `C[C@@H](OC(=O)Nc1c(-c2cc3sc(-c4ccc(CC(=O)O)c(C(F)(F)F)c4)cc3s2)cnn1C)c1ccccc1` [IT222] was 0.05 to 0.5 µM.
For `C[C@H](NC(=O)C#Cc1ccc(-c2cnn(C)c2NC(=O)O[C@H](C)c2ccccc2)cc1)C(=O)O` [IT400] the value was over 0.5 µM; for `C[C@@H](OC(=O)Nc1c(-c2ccc(C#CC(=O)Nc3ccc(C(=O)O)cc3)cc2)cnn1C)c1ccccc1` [IT431], over 0.5 µM; for `COc1cc(-c2cc3sc(-c4snc(C)c4NC(=O)O[C@H](C)c4ccccc4)cc3s2)cnc1C1(C(=O)O)CC1` [IT359], 0.05 to 0.5 µM.
`C[C@@H](OC(=O)Nc1c(-c2cc3sc(-c4ccc(C5(C(=O)O)CC5)s4)cc3s2)cnn1C)c1ccccc1` [IT272] displayed an EC50 of 0.05 to 0.5 µM.
For `C[C@@H](OC(=O)Nc1c(-c2cc3sc(-c4ccc(C5(C(=O)O)CC5)c(S(C)(=O)=O)c4)cc3s2)nnn1C)c1ccccc1` [IT442] the value was over 0.5 µM; for `Cc1cc(C2(C(=O)O)CC2)c(F)cc1-c1cc2sc(-c3cnn(C)c3NC(=O)O[C@H](C)c3ccccc3)cc2s1` [IT342], under 0.05 µM; for `Cc1cc(-c2cc3sc(-c4nnn(C)c4NC(=O)O[C@H](C)c4ccccc4)cc3s2)c(F)cc1C1(C(=O)O)CC1` [IT340], 0.05 to 0.5 µM.
For `COc1cc(C2(C(=O)O)CC2)c(OC)cc1-c1cc2sc(-c3cnn(C)c3NC(=O)O[C@H](C)c3ccccc3)cc2s1` [IT414] the value was over 0.5 µM; for `Cc1nsc(-c2cc3sc(-c4ccc(C5(C(=O)O)CC5)cn4)cc3s2)c1NC(=O)O[C@H](C)c1ccccc1` [IT426], 0.05 to 0.5 µM; for `C[C@@H](OC(=O)Nc1c(-c2cc3sc(-c4ccc5scc(CC(=O)O)c5c4)cc3s2)cnn1C)c1ccccc1` [IT353], 0.05 to 0.5 µM.
For `Cc1nsc(-c2cc3sc(-c4cc(Cl)c(C5(C(=O)O)CC5)cc4F)cc3s2)c1NC(=O)O[C@H](C)c1ccccc1` [IT286] the value was 0.05 to 0.5 µM; for `C[C@@H](OC(=O)Nc1c(-c2ccc(C#CC(=O)N(C)CCC(=O)O)cc2)cnn1C)c1ccccc1` [IT466], over 0.5 µM.
`COc1cc(C2(C(=O)O)CC2)c(F)cc1-c1cc2sc(-c3snc(C)c3NC(=O)O[C@H](C)c3ccccc3)cc2s1` [IT412]: the EC50 is over 0.5 µM.
The value for `C[C@@H](OC(=O)Nc1c(-c2ccc(C#CC(=O)NC3(C(=O)O)CC3)cc2)cnn1C)c1ccccc1` [IT405] was over 0.5 µM.
`Cc1nsc(-c2cc3sc(-c4ccc5[nH]cc(CC(=O)O)c5c4)cc3s2)c1NC(=O)O[C@H](C)c1ccccc1` [IT283] came in with an EC50 of over 0.5 µM.
In the case of `C[C@@H](OC(=O)Nc1[nH]ncc1C#Cc1cc2sc(C3(C(=O)O)CC3)cc2s1)c1ccccc1` [IT127], the EC50 is over 0.5 µM.
Take `Cc1nsc(-c2cc3sc(-c4ccc(CC(=O)O)c5ccccc45)cc3s2)c1NC(=O)O[C@H](C)c1ccccc1` [IT317]: the EC50 is over 0.5 µM.
For `C[C@@H](OC(=O)Nc1c(-c2cc3sc(-c4ccc5[nH]c(C6(C(=O)O)CC6)nc5c4)cc3s2)nnn1C)c1ccccc1` [IT422] the value was over 0.5 µM.
The value for `Cc1noc(-c2ccc(-c3ccc(Oc4ccc(C(=O)O)o4)cc3)cc2)c1NC(=O)O[C@H](C)c1ccccc1` [IT388] was 0.05 to 0.5 µM.
`Cc1nsc(-c2cc3sc(-c4ccc(C5(C(=O)O)CC5)c(F)c4F)cc3s2)c1NC(=O)O[C@H](C)c1ccccc1` [IT366] registered an EC50 of under 0.05 µM.
For `C[C@@H](OC(=O)Nc1c(-c2cc3sc(-c4ccc5[nH]cc(CC(=O)O)c5c4)cc3s2)nnn1C)c1ccccc1` [IT298] the value was 0.05 to 0.5 µM; for `C[C@@H](OC(=O)Nc1c(-c2cc3sc(-c4ccc(CC(=O)O)cc4OC(F)(F)F)cc3s2)nnn1C)c1ccccc1` [IT416], over 0.5 µM.
For `Cc1nsc(-c2cc3sc(-c4ccc(C5(C(=O)O)CC5)c(C(F)(F)F)c4)cc3s2)c1NC(=O)O[C@H](C)c1ccccc1` [IT381] the value was 0.05 to 0.5 µM.
For `Cc1noc(-c2ccc(-c3ccc(Oc4ccc(C(=O)O)cc4)cc3)cc2)c1NC(=O)O[C@H](C)c1ccccc1` [IT368] the value was over 0.5 µM; for `Cc1nsc(-c2cc3sc(-c4ccc(CC(=O)O)c(F)c4)cc3s2)c1NC(=O)O[C@H](C)c1ccccc1` [IT294], 0.05 to 0.5 µM; for `CC(C)[C@H](NC(=O)C#Cc1ccc(-c2cnn(C)c2NC(=O)O[C@H](C)c2ccccc2)cc1)C(=O)O` [IT404], over 0.5 µM.
`C[C@@H](OC(=O)Nc1c(-c2cc3sc(-c4ccc5occ(C6(C(=O)O)CC6)c5c4)cc3s2)nnn1C)c1ccccc1` [IT335] yielded a concentration for a half-maximal effect (EC50) of over 0.5 µM.
For `C[C@@H](OC(=O)Nc1c(-c2ccc(-c3cc(F)c(Oc4cc(F)ccc4C(=O)O)c(F)c3)cc2)nnn1C)c1ccccc1` [IT514] the value was under 0.05 µM.
The value for `C[C@@H](OC(=O)Nc1c(-c2cc3sc(-c4ccc(C5(C(=O)O)CC5)s4)cc3s2)nnn1C)c1ccccc1` [IT273] was 0.05 to 0.5 µM; that for `C[C@@H](OC(=O)Nc1c(-c2cc3sc(-c4ccc5c(C6(C(=O)O)CC6)coc5c4)cc3s2)cnn1C)c1ccccc1` [IT395] was over 0.5 µM; that for `Cc1nsc(-c2cc3sc(-c4ccc5occ(CC(=O)O)c5c4)cc3s2)c1NC(=O)O[C@H](C)c1ccccc1` [IT333] was 0.05 to 0.5 µM.
For `Cc1cc(-c2cc3sc(-c4snc(C)c4NC(=O)O[C@H](C)c4ccccc4)cc3s2)ccc1C1(C(=O)O)CC1` [IT325] the value was 0.05 to 0.5 µM; for `Cc1nsc(-c2cc3sc(-c4cc(Cl)c(CC(=O)O)cc4F)cc3s2)c1NC(=O)O[C@H](C)c1ccccc1` [IT205], over 0.5 µM; for `Cc1nsc(-c2cc3sc(-c4ccc(CC(=O)O)cc4OC(F)(F)F)cc3s2)c1NC(=O)O[C@H](C)c1ccccc1` [IT384], over 0.5 µM.
For the molecule `COc1cc(CC(=O)O)c(F)cc1-c1cc2sc(-c3snc(C)c3NC(=O)O[C@H](C)c3ccccc3)cc2s1` [IT382], the EC50 was over 0.5 µM.
The value for `Cc1nsc(-c2ccc(-c3nnc(C4(C(=O)O)CC4)s3)cc2)c1NC(=O)O[C@H](C)c1ccccc1` [IT200] was over 0.5 µM.
For `COc1cc(-c2cc3sc(-c4cnn(C)c4NC(=O)O[C@H](C)c4ccccc4)cc3s2)ccc1CC(=O)O` [IT221] the value was 0.05 to 0.5 µM.
For `Cc1nsc(-c2cc3sc(-c4ccc5occ(C6(C(=O)O)CC6)c5c4)cc3s2)c1NC(=O)O[C@H](C)c1ccccc1` [IT352] the value was over 0.5 µM; for `COc1cc(C2(C(=O)O)CC2)ccc1-c1cc2sc(-c3cnn(C)c3NC(=O)O[C@H](C)c3ccccc3)cc2s1` [IT264], 0.05 to 0.5 µM.
